Entries after “also recorded” stand apart in the source; their conditions may differ. Where two headings read alike, the source gives them in different places.
Key:
[1] = Log D determination by high pressure liquid chromatography; assay type: physicochemical; details: hplc ods, mobile phase MeOH:H2O, pH 7.4, read-out: (Log D) (Lipophilicity)
Procedure: The procedure used to determine the log D's listed on Table VI was as follows. A 20 »l sample was injected into a Shandon Hypersil ODS, 5» (100 mm x 4.6 mm ID) column and was eluted using a mobile phase of […] MeOH:H₂O (The aqueous portion was .01 M in KH₂PO₄ and adjusted to pH 7.4 with KOH after mixing the MeOH), at a flow rate of 2 ml per minute. Eluting peaks were detected by UV absorbance at […]. All samples were made up at 0.1 mg/ml. (Retentions were identical at 0.01 mg/ml.)
The data was analyzed by determining the regression line corresponding to the log k′ vs. literature log P of the reference standards.
The reference standards and their literature log P's included NaNO₂, 0.0; acetanalide, 1.16; acetophenone, 1.66; anisole, 2.08; chlorobenzene, 2.84; benzophenone, 3.18; anthracene, 4.45; and pentachlorobenzene, 5.12.

cynomolgus monkeys = assay: CNS activity / oral toxicity in cynomolgus monkeys; details: cynomolgus monkey, in vivo
Procedure: Additional monkeys tolerated repeated doses of 45 mg/kg or 30 mg/kg and one animal tolerated an escalating dose schedule of 30-90-120 mg/kg.
The two monkeys administered 400 mg/kg were repeatedly administered this dose for 7 consecutive days; each animal experienced emesis within 1 to 5 hours of dosing after the 1st, 3rd and 4th doses, whereas only the female experienced emesis after the 5th, 6th and 7th doses. A complete necropsy, serum clinical chemistry, hematology and histological examination was completed on both monkeys.

[2] = Cytochrome P-450 inhibition (ethoxycoumarin-O-deethylase activity, phenobarbital-induced microsomes); details: rat
[3] = system: arachidonic acid-induced edema in mice; assay: Arachidonic acid-induced mouse ear inflammation (ear swelling); assay type: in vivo, male Balb/c mice; details: 1 h, 50 mg/kg s.c. or i.p., ear thickness one hour after 2 mg arachidonic acid
5-Lipoxygenase = target: T1, 5-Lipoxygenase (Rattus norvegicus, UniProt P12527); assay: Assay of 5-lipoxygenase activity in RBL-1 high speed supernatant; assay type: biochemical; details: read-out: 5-LO IC50
T1 construct: the supernatant was centrifuged at 100,000 x g for 60 min; host or cells: RBL-1 cells (soluble cell extract, high-speed supernatant)
T1 sequence (P12527 1-673): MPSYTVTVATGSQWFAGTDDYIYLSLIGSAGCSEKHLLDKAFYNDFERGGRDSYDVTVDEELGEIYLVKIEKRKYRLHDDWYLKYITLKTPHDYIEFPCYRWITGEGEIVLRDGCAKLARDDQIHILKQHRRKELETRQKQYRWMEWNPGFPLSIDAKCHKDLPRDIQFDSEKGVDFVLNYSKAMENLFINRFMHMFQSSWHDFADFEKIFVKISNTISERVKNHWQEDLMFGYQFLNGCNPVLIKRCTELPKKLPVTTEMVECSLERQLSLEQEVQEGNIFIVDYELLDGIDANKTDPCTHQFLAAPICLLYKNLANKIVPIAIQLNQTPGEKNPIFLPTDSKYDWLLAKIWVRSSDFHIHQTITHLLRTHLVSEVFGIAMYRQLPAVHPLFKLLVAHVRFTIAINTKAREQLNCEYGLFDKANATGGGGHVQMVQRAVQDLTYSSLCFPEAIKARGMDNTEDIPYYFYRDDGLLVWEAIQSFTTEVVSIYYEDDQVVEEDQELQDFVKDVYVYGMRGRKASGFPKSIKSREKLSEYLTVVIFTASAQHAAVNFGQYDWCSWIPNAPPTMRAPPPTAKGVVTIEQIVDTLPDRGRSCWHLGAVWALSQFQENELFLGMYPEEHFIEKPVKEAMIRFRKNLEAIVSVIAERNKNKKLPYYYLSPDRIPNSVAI
Procedure: For in vitro experiments, compounds were dissolved at appropriate concentrations in ethanol (final concentration 1.0%) and then diluted to final concentrations using the buffers indicated in the text.
The activities of these enzymes in extracts of RBL-1 cells were assayed using the method of Jakschik and Lee, Nature, 287, 51-52 (1980). RBL-1 cells were obtained from the American Type Culture Collection (#CRL 1378) and were grown at 37°C (5% CO₂ in air) in spinner culture in MEM supplemented with 10% heat inactivated fetal calf serum. Harvested cells were washed with 50 mM sodium phosphate buffer, pH 7.0, containing 1 mM EDTA and 0.1% gelatin, resuspended in fresh buffer (5 x 10⁷ cells/ml) and disrupted by nitrogen cavitation using the Parr bomb at 750 psi for 10 min. The broken cell extract was then centrifuged at 10,000 x g for 20 minutes (min) and the supernatant was centrifuged at 100,000 x g for 60 min. Aliquots (0.25 mls) of the supernatant were preincubated with or without drugs for 10 min, after which 10 ul CaCl₂ (2 mM) was added and the reaction was initiated with 2.5 »l of 2.5 mM arachidonic acid-1-¹⁴C (final concentration was 25 »M; specific activity 20,000 dpm/nmole). After incubation for 5 minutes at 37°C, the reaction was terminated by addition of 2 volumes (0.5 ml) ice cold acetone and the sample was allowed to deproteinize on ice for 10 minutes prior to centrifugation at 1,000 x g for 10 minutes. The deproteinized supernatant was adjusted to pH 3.5 with 2N formic acid and extracted with 2 volumes of ice cold ethyl acetate. The extracted samples were dried under argon, redissolved in ethyl acetate and applied to Whatman LK5D thin layer chromatography (TLC) plates which were developed using the A-9 solvent system [organic phase of ethyl acetate: […]:acetic acid: water (110:50:20:10)] described by Hamberg and Samuelsson, J. Biol. Chem., 241, 257-263 (1966). Arachidonic acid, 5-HETE, LTB₄ and PGD₂ were quantified with a Berthold LB 2832 autoscanner.
Under these conditions, only the 5-lipoxygenase pathway metabolites were detectable. The 5-HETE and di-HETEs were formed at a linear rate, and […] amounts of the arachidonic acid-1-¹⁴C substrate were utilized.

[4] = system: arachidonic acid-induced edema in mice; assay: Arachidonic acid-induced mouse ear inflammation (ear swelling); assay type: in vivo, male Balb/c mice; details: for inhibition at 50 mg/kg: Mus musculus, po, 1 h, 50 mg/kg p.o., ear thickness one hour after 2 mg arachidonic acid; for antiinflammatory activity: p.o.
Procedure: In the tests used to determine activity as 5-lipoxygenase pathway inhibitors, male Balb/c mice (20-28 g), were used. All mice were obtained from Charles River Breeding Laboratories, Kingston, N.Y. Within a single experiment, mice were age matched.
Reagents were employed as follows: Compounds of Formula (I) were each used as the free base. The compounds were homogenized in 0.5% tragacanth. Compounds were administered by […] at the indicated dose in a final volume of 10 ml/kg.
Arachidonic acid in acetone (2 mg/20 »l) was applied to the inner surface of the left ear. The thickness of both ears was then measured with a dial micrometer one hour after treatment, and the data were expressed as the change in thickness (10⁻³ cm) between treated and untreated ears.
Test compounds were given orally in acid/saline at the times indicated in the text prior to the topical application of arachidonic acid.
Dermatol., 82, 367-371 (1984)].

[5] = LTB4 production by RBL-1 high speed supernatant
[6] = total HETE and Di-HETE production by RBL-1 high speed supernatant

[O-][S+]1CCn2c1nc(-c1ccc(F)cc1)c2-c1ccncc1 (stereo not shown) [B, 5-(4-pyridyl)-6-(4-fluorophenyl)-2,3-dihydroimidazo [2,1-b]thiazole oxide, reference compound]
chromatographic logD [1]: 1.2
CNS toxicity / adverse CNS effects (comparative statement) (cynomolgus monkeys): reduced CNS toxicity
IC50 ([2]; liver microsomes): 5 µM

CS(=O)(=O)c1ccc(-c2nc3n(c2-c2ccncc2)CCC3)cc1 [Compound 3, 2-(4-Methylsulfonylphenyl)-3-(4-pyridyl)-6.7-dihydro-[5H]-pyrrolo[1,2-a]imidazole]
inhibition at 50 mg/kg [3]: 3%
IC50 (5-Lipoxygenase; [5]): > 100 µM
IC50 ([2]; microsomes): > 100 µM

COc1ccc(-c2nc3n(c2-c2ccccn2)CCC3)cc1 [Compound 4]
inhibition at 50 mg/kg [3]: 29%
IC50 (5-Lipoxygenase; [5]): > 100 µM

COc1ccc(-c2nc3n(c2-c2cccnc2)CCC3)cc1 [Compound 5]
inhibition at 50 mg/kg [3]: 34%
IC50 ([2]; microsomes): > 100 µM

Oc1ccc(-c2nc3n(c2-c2ccncc2)CCC3)cc1 [Compound 7]
IC50 (5-Lipoxygenase; [5]): 17 µM
inhibition at 50 mg/kg [4]: 27%

CCOc1ccc(-c2nc3n(c2-c2ccncc2)CCC3)cc1 [Compound 8]
IC50 (5-Lipoxygenase; [5]): 6 µM
inhibition at 50 mg/kg [4]: 62%

CCCOc1ccc(-c2nc3n(c2-c2ccncc2)CCC3)cc1 [Compound 9]
IC50 (5-Lipoxygenase; [5]): 3.5 µM
IC50 (5-Lipoxygenase; [6]): 8 µM
inhibition at 50 mg/kg [4]: 42%

CC(C)Oc1ccc(-c2nc3n(c2-c2ccncc2)CCC3)cc1 [Compound 10]
IC50 ([2]; microsomes): 2.5 µM
inhibition at 50 mg/kg [4]: 43%

CC(=O)Sc1ccc(-c2nc3n(c2-c2ccncc2)CCC3)cc1 [Compound 11, 2-(4-Acetylthiophenyl)-3-(4-pyridyl)-6,7-dihydro-[5H]-pyrrolo[1,2-a]imidazole]
IC50 (5-Lipoxygenase; [6]): 25 µM
inhibition at 50 mg/kg [4]: 46%

CC(C)(C)C(=O)Sc1ccc(-c2nc3n(c2-c2ccncc2)CCC3)cc1 [Compound 12, 2-(4-Trimethylacetylthiophenyl)-3-(4-pyridyl)-6,7-dihydro-[5H]-pyrrolo[1,2-a]imidazole]
IC50 (5-Lipoxygenase; [6]): 6 µM
inhibition at 50 mg/kg [4]: 45%

CC(=O)OCSc1ccc(-c2nc3n(c2-c2ccncc2)CCC3)cc1 [Compound 13, 2-(4-Acetoxymethylthiophenyl)-3-(4-pyridyl)-6,7-dihydro-[5H]-pyrrolo[1,2-a]imidazole]
IC50 (5-Lipoxygenase; [6]): 47 µM
inhibition at 50 mg/kg [4]: 51%

CCSc1ccc(-c2nc3n(c2-c2ccncc2)CCC3)cc1 [Compound 14, 2-(4-Ethylthiophenyl)-3-(4-pyridyl)-6,7-dihydro-[5H]-pyrrolo[1,2-a]imidazole]
IC50 (5-Lipoxygenase; [6]): 30 µM
IC50 ([2]; liver microsomes): 28.1 µM
inhibition at 50 mg/kg [4]: 56%

CC[S+]([O-])c1ccc(-c2nc3n(c2-c2ccncc2)CCC3)cc1 (stereo not shown) [Compound 15, 2-(4-Ethylsulfinylphenyl)-3-(4-pyridyl)-6,7-dihydro-[5H]-pyrrolo[1,2-a]imidazole]
IC50 (5-Lipoxygenase; [6]): > 100 µM
IC50 ([2]; liver microsomes): > 100 µM
inhibition at 50 mg/kg [4]: 41%

CCOC(=O)CSc1ccc(-c2nc3n(c2-c2ccncc2)CCC3)cc1 [Compound 16, 2-(4-Carbethoxymethylthiophenyl)-3-(4-pyridyl)-6,7-dihydro-[5H]-pyrrolo[1,2-a]imidazole]
inhibition at 50 mg/kg [3]: 15%
IC50 (5-Lipoxygenase; [6]): 50 µM

c1cc(-c2cn3c(n2)CCC3)ccn1 [Compound 17]
inhibition at 50 mg/kg [3]: 41%
inhibition at 50 mg/kg [4]: 20%

CSc1ccc(-c2c(-c3ccncc3)nc3n2CCC3)cc1 [Compound 18]
inhibition at 50 mg/kg [3]: 32%
inhibition at 50 mg/kg [4]: 28%

C[S+]([O-])c1ccc(-c2c(-c3ccncc3)nc3n2CCC3)cc1 (stereo not shown) [Compound 19]
inhibition at 50 mg/kg [3]: 56%
inhibition at 50 mg/kg [4]: 52%

CSc1ccc(-c2nc3n(c2-c2ccnc(C)c2)CCC3)cc1 [Compound 20, 2-(4-Methylthiophenyl)-3-[4-(2-methyl)pyridyl]-6,7-dihydro-[5H]-pyrrolo[1,2,a]imidazole]
inhibition at 50 mg/kg [3]: 59%
inhibition at 50 mg/kg [4]: 59%

Cc1cc(-c2c(-c3ccc([S+](C)[O-])cc3)nc3n2CCC3)ccn1 (stereo not shown) [Compound 21, 2-(4-Methylsulfinylphenyl)-3-[4-(2-methyl)pyridyl]-6,7-dihydro-[5H]-pyrrolo[1,2-]imidazole]
inhibition at 50 mg/kg [3]: 14%
inhibition at 50 mg/kg [4]: 59%

COc1ccc(-c2nc3n(c2-c2ccnc(C)c2)CCC3)cc1 [Compound 22, 2-(4-methoxyphenyl)-3-[4-(2-methyl)pyridyl]-6,7-dihydro-[5H]-pyrrolo[1,2-a]imidazole]
inhibition at 50 mg/kg [3]: 57%
inhibition at 50 mg/kg [4]: 56%

COc1ccc(-c2nc3n(c2-c2ccnc(C)c2)CCC3)cc1 [Compound 23]
IC50 ([2]; liver microsomes): 56.6 µM

CC(C)Cc1ccc(C(C)C(=O)O)cc1 (stereo not shown) [ibuprofen, reference compound]
antiinflammatory activity ([4]; 250 mg/kg): do not exhibit detectable antiinflammatory activity

COc1ccc2c(c1)c(CC(=O)O)c(C)n2C(=O)c1ccc(Cl)cc1 [indomethacin, reference compound]
antiinflammatory activity ([4]; 10 mg/kg): did not reduce inflammation; also recorded: do not exhibit detectable antiinflammatory activity

COc1ccc2cc([C@H](C)C(=O)O)ccc2c1 [naproxen, reference compound]
antiinflammatory activity ([4]; 100 mg/kg): do not exhibit detectable antiinflammatory activity
